Measurements published in US20230073777A1, “CYCLIC-AMP RESPONSE ELEMENT BINDING PROTEIN (CBP) AND/OR ADENOVIRAL E1A BINDING PROTEIN OF 300 KDA (P300) DEGRADATION COMPOUNDS AND METHODS OF USE” (CULLGEN (SHANGHAI), INC., priority 2019, published 2023).

Columns and labels:
LNCaP cells = experiment: LNCaP cell viability assay (CellTiter-Glo); type: cell-based; settings: Homo sapiens, 72 h; LNCaP prostate cancer cell viability inhibition, 3 days, CellTiter-Glo (Table 3)
Summary of the method: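 LNCaP cells, 5000/well, exposed to compounds in 12-point 3-fold serial dilution (top 10 μM) for 3 days. Viability by CellTiter-Glo luminescence, normalized to untreated cells; IC50 by least-squares nonlinear regression.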

P300 = P300 (Homo sapiens, UniProt Q09472); experiment: Immunoblotting of P300 protein levels in LNCaP or 22RV1 cells; type: cell-based; set-up: LNCaP or 22RV1 cells that express CBP/P300 proteins were treated with GNE-781 or the bivalent compounds; endogenous in cells; host or cells: LNCaP (clone FGC) or 22RV1 cells; settings: percentage of inhibition of p300 at 10 nM (Table 3); read-out: Degradation (10 nM)
Chain of P300 (Q09472 whole entry): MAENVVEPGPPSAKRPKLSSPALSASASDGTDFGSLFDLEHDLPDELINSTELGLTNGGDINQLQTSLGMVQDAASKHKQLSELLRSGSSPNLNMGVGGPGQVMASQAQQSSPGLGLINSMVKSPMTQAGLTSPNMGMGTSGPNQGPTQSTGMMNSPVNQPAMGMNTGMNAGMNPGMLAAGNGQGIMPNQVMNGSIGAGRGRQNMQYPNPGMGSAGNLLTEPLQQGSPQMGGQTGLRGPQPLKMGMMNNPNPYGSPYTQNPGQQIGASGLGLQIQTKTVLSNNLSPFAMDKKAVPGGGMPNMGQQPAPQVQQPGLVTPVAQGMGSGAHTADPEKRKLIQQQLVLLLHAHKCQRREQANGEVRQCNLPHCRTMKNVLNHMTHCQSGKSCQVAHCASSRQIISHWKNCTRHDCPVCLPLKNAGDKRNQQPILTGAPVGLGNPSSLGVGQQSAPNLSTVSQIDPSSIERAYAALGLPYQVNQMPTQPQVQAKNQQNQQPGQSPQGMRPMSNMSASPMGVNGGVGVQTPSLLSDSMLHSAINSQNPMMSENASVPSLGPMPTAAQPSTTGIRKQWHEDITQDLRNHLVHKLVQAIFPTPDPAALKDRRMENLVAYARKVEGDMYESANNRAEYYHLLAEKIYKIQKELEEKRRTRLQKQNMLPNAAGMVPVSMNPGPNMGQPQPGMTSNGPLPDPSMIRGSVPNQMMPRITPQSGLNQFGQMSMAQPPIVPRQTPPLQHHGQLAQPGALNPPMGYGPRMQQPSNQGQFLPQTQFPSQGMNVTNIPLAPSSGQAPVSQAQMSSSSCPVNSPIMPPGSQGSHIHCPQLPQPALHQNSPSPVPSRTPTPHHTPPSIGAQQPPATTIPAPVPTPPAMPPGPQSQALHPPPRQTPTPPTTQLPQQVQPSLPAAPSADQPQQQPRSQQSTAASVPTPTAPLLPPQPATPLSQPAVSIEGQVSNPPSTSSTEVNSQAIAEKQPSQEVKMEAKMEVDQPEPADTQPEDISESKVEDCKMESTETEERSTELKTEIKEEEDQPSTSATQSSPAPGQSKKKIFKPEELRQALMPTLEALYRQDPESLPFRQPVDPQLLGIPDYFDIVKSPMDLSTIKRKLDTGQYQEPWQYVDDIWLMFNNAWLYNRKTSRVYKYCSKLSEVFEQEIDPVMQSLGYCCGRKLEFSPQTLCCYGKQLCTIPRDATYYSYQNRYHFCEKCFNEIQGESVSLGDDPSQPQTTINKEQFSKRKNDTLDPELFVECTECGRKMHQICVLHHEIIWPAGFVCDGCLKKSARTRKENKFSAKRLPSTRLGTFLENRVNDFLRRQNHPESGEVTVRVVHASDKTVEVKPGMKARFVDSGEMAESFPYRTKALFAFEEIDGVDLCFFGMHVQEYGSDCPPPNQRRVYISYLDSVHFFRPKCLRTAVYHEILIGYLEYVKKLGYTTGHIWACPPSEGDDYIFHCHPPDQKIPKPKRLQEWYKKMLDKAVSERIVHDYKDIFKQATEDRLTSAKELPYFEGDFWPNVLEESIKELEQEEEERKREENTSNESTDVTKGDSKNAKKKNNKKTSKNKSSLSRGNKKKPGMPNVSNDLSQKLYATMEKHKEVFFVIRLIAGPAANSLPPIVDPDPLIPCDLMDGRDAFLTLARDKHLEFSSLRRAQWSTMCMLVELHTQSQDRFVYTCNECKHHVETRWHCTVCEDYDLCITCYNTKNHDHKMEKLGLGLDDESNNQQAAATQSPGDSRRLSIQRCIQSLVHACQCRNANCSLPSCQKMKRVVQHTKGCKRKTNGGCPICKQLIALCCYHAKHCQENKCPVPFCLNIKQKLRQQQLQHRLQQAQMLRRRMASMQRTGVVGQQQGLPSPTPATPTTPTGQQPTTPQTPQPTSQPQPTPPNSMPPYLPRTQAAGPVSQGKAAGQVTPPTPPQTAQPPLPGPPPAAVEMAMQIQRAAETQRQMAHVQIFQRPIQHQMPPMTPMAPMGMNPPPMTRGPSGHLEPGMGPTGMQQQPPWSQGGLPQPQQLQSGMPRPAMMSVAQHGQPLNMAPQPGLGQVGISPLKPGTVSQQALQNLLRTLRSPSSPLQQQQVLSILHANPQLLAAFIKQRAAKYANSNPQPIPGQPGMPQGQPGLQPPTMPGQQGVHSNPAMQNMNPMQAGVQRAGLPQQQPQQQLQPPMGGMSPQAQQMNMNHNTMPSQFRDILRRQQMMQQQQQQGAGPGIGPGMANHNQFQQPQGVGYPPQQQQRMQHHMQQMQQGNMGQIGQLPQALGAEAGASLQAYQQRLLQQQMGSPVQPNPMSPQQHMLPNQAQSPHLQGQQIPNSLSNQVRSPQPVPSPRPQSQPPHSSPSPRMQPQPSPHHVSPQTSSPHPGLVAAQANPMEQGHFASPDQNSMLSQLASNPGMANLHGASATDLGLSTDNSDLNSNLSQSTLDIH
Summary of the method: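 LNCaP or 22RV1 cells treated with compounds for indicated hours, DMSO as negative control. RIPA lysates resolved by SDS-PAGE and immunoblotted for P300 or CBP, tubulin or vinculin as loading control; chemiluminescent bands quantitated.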

CC(=O)N1CCc2c(c(N3CCCc4cc(-c5cnn(C)c5)c(C(F)F)cc43)nn2C2CCN(CCc3ccc(COc4cccc5c4CN(C4CCC(=O)NC4=O)C5=O)cc3)CC2)C1 (stereo not shown) [P-173, 3-(4-((4-(2-(4-(5-acetyl-3-(7-(difluoromethyl)-6-(1-methyl-1H-pyrazol-4-yl)-3,4-dihydroquinolin-1(2H)-yl)-4,5,6,7-tetrahydro-1H-pyrazolo[4,3-c]pyridin-1-yl)piperidin-1-yl)ethyl)benzyl)oxy)-1-oxoisoindolin-2-yl)piperidine-2,6-dione]
IC50 (LNCaP cells): 3.4 nM | inhibition at 0.01 µM (P300): 20 to 50%

CC(=O)N1CCc2c(c(N3CCCc4cc(-c5cnn(C)c5)c(C(F)F)cc43)nn2C2CCN(Cc3ccc(CCOc4cccc5c4CN(C4CCC(=O)NC4=O)C5=O)cc3)CC2)C1 (stereo not shown) [P-174, 3-(4-(4-((4-(5-acetyl-3-(7-(difluoromethyl)-6-(1-methyl-1H-pyrazol-4-yl)-3,4-dihydroquinolin-1(2H)-yl)-4,5,6,7-tetrahydro-1H-pyrazolo[4,3-c]pyridin-1-yl)piperidin-1-yl)methyl)phenethoxy)-1-oxoisoindolin-2-yl)piperidine-2,6-dione]
IC50 (LNCaP cells): 0.4 nM | inhibition at 0.01 µM (P300): > 80%
